Results from US8536227B2, “Modulators of protein kinase signaling” (Novotyr Therapeutics Ltd., priority 2008, dated 2013).

Key:
[1] = test system: Human ovary cancer A2780 cells xenografts; test: Inhibition of ovarian A2780 tumor growth in vivo (xenograft); set-up: species or system Nude:Hsd mice; conditions: A2780 xenograft in nude mice
Method: Groups were composed of 7-8 mice per group.
The procedure was followed for the A2780 ovary cancer cell in-vivo study with the following modifications:
The Veh group received PBS. The CDDP group received 8 mg/kg CDDP (Cisplatin) twice a week.

[2] = test system: IGF1R related cell signaling in human breast cancer MCF7 cells; conditions: FIG. 15; for IGF1-induced tyrosine phosphorylation of IRS1: 50 ng/ml IGF-1 stimulation
Method: (§2) Tyrosine autophosphorylation of the β-subunit of IGF1R as well as downstream signaling induced by IGF1R were assayed in human breast cancer MCF7 cells and in melanoma A375 cells. Cells were seeded in 6-well plates (250,000 cells/well) and 24 hours later medium was replaced by serum-free medium (RPMI supplemented with 100 units/ml penicillin and 100 μg/ml streptomycin). Following 20 hours of serum-starvation, medium was replaced with serum-free medium containing various concentrations of the inhibitors in 0.1% DMSO for an additional 4-5 hours. […] Equal amounts of protein per lane were separated by 8% SDS-PAGE and transferred to a nitrocellulose membrane (Sartorius AG). […] Detection was performed with horseradish peroxidase-conjugated secondary antibody using the ECL system. Blots were then stripped of antibodies, blocked with TBST with 5% low fat milk and re-probed with antibodies detecting both the phosphorylated and the non-phosphorylated corresponding proteins e.g. IGF1Rβ, IRS1, PKB, and ERK. Anti-actin antibodies served as control.
(§3) In addition, lysates were prepared from cells exposed to inhibitors at various concentrations for 24 hours in the presence or the absence of FCS without stimulation. Lysate preparation and western blot were performed as described above.

[3] = test system: IGF1R related cell signaling in human melanoma A375 cells; conditions: FIGS. 14 and 16; for IGF1-induced tyrosine phosphorylation of IRS1: 50 ng/ml IGF-1 stimulation
Method: as §2, §3

[4] = test system: Human melanoma A375 cells xenografts; conditions: A375 xenograft in nude mice, IP 50 mg/kg daily or 100 mg/kg every other day
Method: Human melanoma A375 cells (ATCC, 2×10^6 cells per mouse) were injected subcutaneously into the flank of Nude:Hsd mice. Eight days later, when tumors were formed, mice were divided into 3 groups with similar average tumor size of 120 mm^3. […] The Veh group received daily 2% EtOH, 6% Tween-80 in DDW at volume of 10 ml/kg. Groups were composed of 7-8 mice per group. The length (l) and the width (w) of the tumors were measured twice a week, as well as the mouse body weight. The volumes of the tumors were calculated as follows: v=lw^2/2. Graphs present average volumes of the tumors versus days following treatment initiation.
The mice were treated with daily or alternate day IP injections, at the specified doses.

A375 cells = test: cells; conditions: Homo sapiens, A-375, 168 h, read-out: CF (colony formation in soft agar) IC50
Method: (§1) Suspensions of separated A375 and U138MG cells were plated in 50 μl growth medium containing 0.3% agar on top of a 100 μl layer of growth medium containing 1% agar in 96-well plates. Growth medium (50 μl) supplemented with inhibitors at various concentrations was added on top. Six to seven days after plating, colonies were stained with 0.5% MTT for 4 hours, and dye was then extracted by the addition of 100 μl dissolving buffer, containing 5 gr sodium dodecyl sulfate, 8.75 ml DDW, 12.5 ml dimethyl formamide, 0.5 ml acetic acid and 0.07 ml HCl. Following incubation overnight at 37° C., optical density values were read at 570 nm in ELISA plate reader. The data was analyzed in Microsoft Excel, using the vehicle control as 100% proliferation. The assays were performed in triplicates. The values of IC50 were derived from the dose-dependent growth curves obtained.

U138MG cells = test: cells; conditions: Homo sapiens, U138-MG, 168 h, read-out: CF (colony formation in soft agar) IC50
Method: as §1

Structure (SMILES) | inhibition of ovarian tumor growth ([1]; 8 mg/kg twice a week) [%] | IGF1-induced tyrosine phosphorylation of IRS1 [2] | serine phosphorylation of IRS1 (pS636/639-IRS1) and IRS1 level [2] | IGF1-induced tyrosine phosphorylation of IRS1 [3] | serine phosphorylation of IRS1 (pS636/639-IRS1) and IRS1 level [3] | inhibition of melanoma tumor growth [4] [%] | IC50 (A375 cells) [nM] | IC50 (U138MG cells) [nM] | inhibition of ovarian tumor growth ([1]; IP daily 25 mg/kg in PBS) [%]
[NH2][Pt]([NH2])([Cl])[Cl] [CDDP, Cisplatin, reference compound] | 14 |  |  |  |  |  |  |  | 
Oc1cc(/C=C/C(=S)NCc2cc(O)c(O)c(O)c2Br)cc(Br)c1O [Compound 4] |  | inhibited | induce serine phosphorylation of IRS1, followed by its degradation |  |  |  |  |  | 
Oc1cc(CNC(=S)/C=C/c2ccc(O)c(O)c2Br)cc(O)c1O [Compound 5] |  | inhibited | induce serine phosphorylation of IRS1, followed by its degradation | inhibited | induce serine phosphorylation of IRS1, followed by its degradation | 70 | 400 | 2600 | 45
Oc1cc(Br)c(/C=C/C(=S)NCc2cc(O)c(O)c(O)c2)cc1O [Compound 6] |  |  |  | inhibited | induce serine phosphorylation of IRS1, followed by its degradation |  |  |  | 
